Source: patent publication US9018370B2, “Derivatives of uridine phosphate and their uses in protein binding assays” (King's College London of Strand, priority 2009, dated 2015)

Tests used:
[1] = Absorbance and fluorescence spectra of 5-R-UMP analogues; type: physicochemical; conditions: for λmax: absorbance; for Emmax: fluorescence emission
Method: UV absorbance spectra were recorded on a PerkinElmer Lambda 25 UV-Vis spectrometer at ambient temperature in FarUV quartz cells (path length 1.0 cm). Fluorescence spectra were recorded on a PerkinElmer LS-45 spectrometer at ambient temperature in a quartz micro fluorescence cell (path length 1.0 cm).

[2] = Quantum yield determination of nucleotide derivatives; type: physicochemical; conditions: for Q.Y.: in water
Method: Nucleotide derivatives were serially diluted in H2O (10, 20, 30, 40 and 50 μM for absorbance measurements, and 0.2, 0.4, 0.6, 0.8, 1 μM for fluorescence measurements), and UV absorbance and fluorescence emission (with λmax absorbance=λem fluorescence) were recorded for all samples. To determine quantum yields, for each absorbance and fluorescence spectrum the area under the curve (AUC) was calculated by numerical integration, applying the mid-point rule. For each compound, AUCabs and AUCem were then plotted over compound concentration according to AUCabs=A×[conc]+B and AUCem=A′×[conc]+B′. From these linear plots, the gradients A and A′ were extracted, and for each compound the specific quantum yield φs, under these experimental conditions, was calculated as the ratio A′/A. Quantum yields determined with this protocol for two reference compounds, 2-aminopyridine and L-tryptophan (2-aminopyridine: 0.60; L-tryptophan: 0.14) were in exact agreement with literature values. The quantum yields for reference compounds were used to calculate the general quantum yield φg for each nucleotide analogue, according to φg=φref×(A′/A)/(A′/A)ref.
Fluorescent uracil nucleosides and (sugar-)nucleotides can be obtained by connecting a known chromophore/fluorophore via an electronically nonconjugating linker to the natural uracil base (Sinkeldam et al. Chem. Rev. 2010, 110, 2579-2619). The photophysical features of the resulting nucleoside/(sugar-)nucleotide analogue are usually very similar to that of the parent fluorophore (Sinkeldam et al. Chem. Rev. 2010, 110, 2579-2619). In contrast, extending the uracil by electronically conjugating the base to additional aromatic moieties typically generates a new chromophore with unique, and somewhat unpredictable, photophysical characteristics (Sinkeldam et al. Chem. Rev. 2010, 110, 2579-2619). To precisely measure the intensity of the fluorescence emitted by the brightest fluorophores described above, we determined their quantum yield. These measurements were performed in water following the procedure reported by Nighswander-Remper and the results are shown in Table B below. Quantum yield determinations confirmed that 2p and 2q display the highest fluorescence and are 10-fold brighter than any other nucleotide analogues with a compact aryl- or heteroaryl substituent in position 5 that have been reported to date (Sinkeldam et al. Chem. Rev. 2010, 110, 2579-2619). That 2p and 2q absorb and fluoresce at long wavelength is an attractive feature, which makes these fluorophores suitable for analyses in biological environments. Additionally, we found the intensity of the fluorescence emission is conserved for UDP and UTP analogues, thereby providing attractive fluorescence probes candidates for fluorimetric assays.

B. taurus α-1,3-GalT = target: T1, B. taurus α-1,3-GalT (Bos taurus, UniProt P14769); test: Donor kinetics of UDP-Gal derivatives with GalT, HPLC; type: biochemical; conditions: MnCl2 20 mM, MOPS pH 7.2, 37° C.
T1 construct: made in house
Method: J. Am. Chem. Soc. 122, 261-1269 (2000); Rich, J. R.; Szpacenko, A.; Palcic, M. M. & Bundle, D. R. Glycosyltransferase-Catalyzed Synthesis of Thiooligosaccharides. Angew. Chem. Int. Ed. […] ChemBioChem 9, 1632-1640 (2008). […] (total volume 100 μL, all concentrations are final concentrations). The reactions were stopped by cooling in dry ice. Samples were analysed immediately by HPLC on a PerkinElmer Series 200 machine equipped with a Supelcosil LC-18-T column (5 μm, 25 cm×4.6 mm), a column oven (set to 30° C.), and a diode array detector. Each sample (injection volume 40 μL) was eluted at 1.5 mL/min with a gradient of methanol (10-30%) against 0.5 M phosphate buffer (adjusted to pH 8 with triethylamine). […] Km and vmax values were determined by fitting data points to a Michaelis-Menten curve using GraFit 5.0.10.

[3] = Quantum yield determination of UDP-Gal derivatives 3a-d; type: physicochemical; conditions: in H2O
Method: To determine quantum yields, for each absorbance and fluorescence spectrum the area under the curve (AUC) was calculated by numerical integration, applying the mid-point rule. For each compound, AUCabs and AUCfluo were then plotted over compound concentration according to AUCabs=A×[conc]+B (equation 1) and AUCfluo=A′×[conc]+B′ (equation 2). […] The quantum yields for reference compounds were used to calculate the general quantum yield φg for each compound 3a-d, according to φg=φref×(A′/A)/(A′/A)ref.

Ggta1 = target: T2, Ggta1 (Bos taurus, UniProt P14769); test: Variation in fluorescence of 3d and analogues upon incubation with Ggta1; type: binding, B. taurus; conditions: various concentrations of Ggta1
T2 construct: made in house
Method: Fluorescence intensity measurements with 3d were carried out in black NUNC F96 MicroWell polystyrene plates on a BMG labtech PolarStar microplate reader equipped with a 350±5 nm excitation filter and a 430±5 nm emission filter. The number of flashes per wells was set to 50 (gain: 2240; position delay: 0.2 s). Prior to readings, plates were incubated, with shaking, for 10 min at 30° C. (double orbital, shaking width 4 mm, 10 seconds). Results were visualised with BMG labtech data analysis software Mars 1.10 and analysed with GraFit version 5.0.10.
Samples were pipetted into the requisite wells of a black NUNC 96-well plate as shown in tables E1-E3, at the end of the description. Key: B—Tris/HCl buffer (50 mM, pH 7; 40 μL); F—fluorophore 3d (200 nM in Tris/HCl buffer; 40 μL); M—MnCl2 (10 mM in Tris/HCl buffer; […]); E—galactosyltransferase (in Tris/HCl buffer; 40 μL); I—inhibitor (in Tris/HCl buffer; 40 μL). Total volume/well: 200 μL. All experiments were carried out in triplicate, unless indicated otherwise.
We also carried out an experiment on 3d (numbered 18e in FIG. 4) and different analogues of 3d, namely the nucleoside 5h, the nucleotide 6r and nucleoside diphosphate 22d, to show their variation in fluorescence on binding to Ggta1.
The synthesis of 5h, 6r and 22d are shown below. The protocol for the microplate/fluorescence experiments was the same as in Example 2.

T1 sequence (P14769 whole entry): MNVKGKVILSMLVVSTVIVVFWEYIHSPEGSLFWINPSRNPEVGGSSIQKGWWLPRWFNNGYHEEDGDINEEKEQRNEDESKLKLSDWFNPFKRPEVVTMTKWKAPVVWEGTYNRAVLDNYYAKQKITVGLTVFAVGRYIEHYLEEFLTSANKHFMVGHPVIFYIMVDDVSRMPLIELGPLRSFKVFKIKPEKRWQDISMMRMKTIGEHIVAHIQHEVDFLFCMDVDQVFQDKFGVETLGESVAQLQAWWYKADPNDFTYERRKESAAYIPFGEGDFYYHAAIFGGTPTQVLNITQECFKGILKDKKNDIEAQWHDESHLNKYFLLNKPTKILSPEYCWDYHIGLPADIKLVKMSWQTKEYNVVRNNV
T2 sequence (P14769 whole entry): as above

Fluo Intensity at 100 μM [1] [a.u.]	λmax [1] [nm]	Emmax [1] [nm]	Compound	other results
40	278	403	O=c1[nH]c(=O)n([C@@H]2O[C@H](COP(=O)(O)O)[C@@H](O)[C@H]2O)cc1-c1ccccc1 [2a, 5-Phenyluridine-5′-monophosphate]	–
78	281	398	O=c1[nH]c(=O)n([C@@H]2O[C@H](COP(=O)(O)O)[C@@H](O)[C@H]2O)cc1-c1ccc(Cl)cc1 [2b, 5-(4-Chlorophenyl)-uridine-5′-monophosphate]	Q.Y. [2]: 0.001
–	285	–	O=c1[nH]c(=O)n([C@@H]2O[C@H](COP(=O)(O)O)[C@@H](O)[C@H]2O)cc1-c1cccc(O)c1 [2e, 5-(3-Hydroxyphenyl)-uridine-5′-monophosphate]	–
0.9	273	415	O=c1[nH]c(=O)n([C@@H]2O[C@H](COP(=O)(O)O)[C@@H](O)[C@H]2O)cc1-c1ccccc1O [2f, 5-(2-Hydroxyphenyl)-uridine-5′-monophosphate]	–
32.2	221	450	O=c1[nH]c(=O)n([C@@H]2O[C@H](COP(=O)(O)O)[C@@H](O)[C@H]2O)cc1-c1ccc2ccccc2c1 [2g, 5-(2-Naphtyl)-uridine-5′-monophosphate]	–
17.6	283	411	O=C(O)c1ccc(-c2cn([C@@H]3O[C@H](COP(=O)(O)O)[C@@H](O)[C@H]3O)c(=O)[nH]c2=O)cc1 [2h, 5-(4-Carboxyphenyl)-uridine-5′-monophosphate]	–
5.3	278	382	CS(=O)(=O)c1cccc(-c2cn([C@@H]3O[C@H](COP(=O)(O)O)[C@@H](O)[C@H]3O)c(=O)[nH]c2=O)c1 [2k, 5-(3-Methanesulfonylphenyl)-uridine-5′-monophosphate]	–
603	279	444	COc1ccc(-c2cn([C@@H]3O[C@H](COP(=O)(O)O)[C@@H](O)[C@H]3O)c(=O)[nH]c2=O)cc1 [2l, 5-(4-Methoxyphenyl)-uridine-5′-monophosphate]	Q.Y. [2]: 0.02

Further lines, the compound ahead of its results:

Compound	Fluo Intensity at 100 μM [1] [a.u.]	λmax [1] [nm]	Emmax [1] [nm]	other results
Cc1ccc(-c2cn([C@@H]3O[C@H](COP(=O)(O)O)[C@@H](O)[C@H]3O)c(=O)[nH]c2=O)cc1[N+](=O)[O-] [2c]	6.7	279	434	–
CC(C)(C)OC(=O)NCc1cccc(-c2cn([C@@H]3O[C@H](COP(=O)(O)O)[C@@H](O)[C@H]3O)c(=O)[nH]c2=O)c1 [2d, 5-(3-N-BOC-aminomethylphenyl)-uridine-5′-monophosphate]	11.6	281	427	–
O=c1[nH]c(=O)n([C@@H]2O[C@H](COP(=O)(O)O)[C@@H](O)[C@H]2O)cc1-c1ccc(C(F)(F)F)cc1 [2i, 5-(4-Trifluoromethylphenyl)-uridine-5′-monophosphate]	5.3	280	383	–
COc1cncc(-c2cn([C@@H]3O[C@H](COP(=O)(O)O)[C@@H](O)[C@H]3O)c(=O)[nH]c2=O)c1 [2j, 5-(5-Methoxy-3-pyridyl)-uridine-5′-monophosphate]	74.8	289	414	–
O=c1[nH]c(=O)n([C@@H]2O[C@H](COP(=O)(O)O)[C@@H](O)[C@H]2O)cc1-c1ccco1 [2m, 5-(Furan-2-yl)-uridine-5′-monophosphate]	497	314	437	Q.Y. [2]: 0.04
O=Cc1ccc(-c2cn([C@@H]3O[C@H](COP(=O)(O)O)[C@@H](O)[C@H]3O)c(=O)[nH]c2=O)o1 [2n]	640	348	431	Q.Y. [2]: 0.04
O=Cc1ccsc1-c1cn([C@@H]2O[C@H](COP(=O)(O)O)[C@@H](O)[C@H]2O)c(=O)[nH]c1=O [2o, 5-(3-Formylthien-2-yl)-uridine-5′-monophosphate]	387	267	453	Q.Y. [2]: 0.02
CC(=O)c1ccc(-c2cn([C@@H]3O[C@H](COP(=O)(O)O)[C@@H](O)[C@H]3O)c(=O)[nH]c2=O)s1 [2p, 5-(5-Acetylthien-2-yl)-uridine-5′-monophosphate]	>650	348	433	Brightness relative to any other reported 5-aryl/heteroaryl nucleotide analogues [2]: 10 fold; Q.Y. [2]: 0.24
O=c1[nH]c(=O)n([C@@H]2O[C@H](COP(=O)(O)OP(=O)(O)O[C@H]3O[C@H](CO)[C@H](O)[C@H](O)[C@H]3O)[C@@H](O)[C@H]2O)cc1-c1ccccc1 [3a, 5-Phenyl UDP-α-D-galactose]	–	–	–	Km (B. taurus α-1,3-GalT): 96 ± 8 µM; kcat (B. taurus α-1,3-GalT): 0.0021 s⁻¹; Quantum yield [3]: <0.01
COc1ccc(-c2cn([C@@H]3O[C@H](COP(=O)(O)OP(=O)(O)O[C@H]4O[C@H](CO)[C@H](O)[C@H](O)[C@H]4O)[C@@H](O)[C@H]3O)c(=O)[nH]c2=O)cc1 [3b, 5-(4-Methoxyphenyl)-UDP-α-D-galactose]	–	–	–	Km (B. taurus α-1,3-GalT): 82 ± 11 µM; kcat (B. taurus α-1,3-GalT): 0.004 s⁻¹; Quantum yield [3]: 0.024
O=c1[nH]c(=O)n([C@@H]2O[C@H](COP(=O)(O)OP(=O)(O)O[C@H]3O[C@H](CO)[C@H](O)[C@H](O)[C@H]3O)[C@@H](O)[C@H]2O)cc1-c1ccco1 [3c, 5-(2-Furyl)-UDP-α-D-galactose]	–	–	–	Km (B. taurus α-1,3-GalT): 69 ± 13 µM; kcat (B. taurus α-1,3-GalT): 0.0044 s⁻¹; Quantum yield [3]: 0.04
O=Cc1ccc(-c2cn([C@@H]3O[C@H](COP(=O)(O)OP(=O)(O)O)[C@@H](O)[C@H]3O)c(=O)[nH]c2=O)s1 [22d, 5-(5-Formylthien-2-yl)-UDP]	–	–	–	Variation in fluorescence on binding to Ggta1 (Ggta1): varied their intensity of luminescence with Ggta1
O=c1[nH]c(=O)n([C@@H]2O[C@H](COP(=O)(O)O)[C@@H](O)[C@H]2O)cc1I [compound 1, 5-Iodouridine-5′-monophosphate]	–	262	377	–
